What was measured:
Assay type in all cases: in vivo, ICR mice
[1] = tested on: IR, Akt, AS160, GLUT2 and PEPCK in liver of mice with type 1 DM; test: Western blot of insulin signaling pathway in liver after 7-day borapetoside A; settings: type 1 DM mice; 10 mgkg^−1 twice a day for 7 days
Protocol: After three days of acclimatization, the mice had free access to a standard rodent chow (normal mice), a standard rodent chow after single […] streptozotocin (STZ) intraperitoneal injection (T1DM mice), and a fat-rich chow diet and fructose-sweetened water (T2DM mice) for 4 weeks. The induction of Type 1 DM was assessed and confirmed when the mice had plasma glucose levels ≧350 mgdL^−1, accompanied with polyuria, hyperphagia and decreased body weight. The induction Type 2 DM in the mice was assessed by measuring fasting plasma glucose levels and confirmed when plasma glucose level was ≧150 mgdL^−1 after the 4-week induction. The animals were assigned randomly into three groups, with seven animals in each group. In group I, the mice were treated with vehicle, 2% DMSO in normal saline, as the negative control. In group II, the mice were intraperitoneally treated with borapetoside A (0.1-10 mgkg^−1). In group Ill, the positive control, the mice received intraperitoneally metformin (300 mgkg^−1; Sigma Chemical Co., St. Louis, Mo., U.S.A.) or insulin (0.5 IUkg^−1; Insulin Actrapid® HM; Novo Nordisk, Denmark). In the acute study, mice under anesthesia received a single intraperitoneal administration of borapetoside A, negative control, or positive control. In the subacute study, mice received intraperitoneal administrations of borapetoside A, vehicle, or insulin twice a day for seven days.
Western blot analysis was carried out by known methods with a slight modification. Briefly, tissues were homogenized in T-PER® Tissue Protein Extraction Reagent (Pierce Biotechnology, Rockford, Ill.) with Halt™ Protease Inhibitor Single-Use Cocktail (Pierce Biotechnology, Rockford, Ill.). Liver homogenates were prepared by mechanical homogenization (Polytron PT3100, Luzernerstrasse, Switzerland). After centrifuging the homogenates at 10,000 g for 30 minutes, the protein concentrations were determined by using a BCA Protein Assay Kit (Pierce Biotechnology, Rockford, Ill.). Later, 60 μg of protein preparations were applied on 10% sodium dodecyl sulfate-polyacrylamide gel for electrophoresis and then transferred to polyvinylidene difluoride membranes (Millipore, Billerica, Mass.). The membranes were analysed by using the antibodies against phospho-insulin receptor β (IRβ) (Tyr^1345), phospho-Akt (Ser^473), phosphor-AS160 (Thr^642), AS160 (Cell Signaling Technology, Beverly, Mass.), IRβ, Akt, β-Actin (Santa Cruz Biotechnology, Santa Cruz, Calif.), GLUT2 (Abcam, Cambridge, UK), and PEPCK (a gift from Professor DK Granner), respectively. Chemiluminescence detection and image analysis was performed with UVP-Biochimie Bioimager and Lab Works software (UVP, Upland, Calif.). The intensity of each band was quantified with ImageQuant.

[2] = tested on: IR, Akt and GLUT2 in liver of T1DM mice; test: Western blot of IR-related signaling mediators in liver after 7-day borapetoside C, alone or with insulin
Protocol: (§1) T1DM mice were induced by a known method. In brief, an intraperitoneal injection of streptozotocin (STZ; Sigma Chemical Co.; St. Louis, Mo.) at 150 mg/kg was performed in mice that were fasted for 48 h. The induction of T1DM was assessed and confirmed when the mice had plasma glucose levels ≧350 mg/dL, accompanied with polyuria, hyperphagia and decreased body weight. The control mice group received an injection of vehicle and then carried out for 4 weeks. T2DM mice were induced by maintaining on a fat-rich chow diet and fructose-sweetened water for 4 weeks from the age of 4-5 weeks according to previous methods. The induction T2DM mice were assessed by measuring fasting plasma glucose levels and confirmed when plasma glucose level was ≧150 mg/dL after a 4-week induction.
After treatment, the mice were sacrificed by cervical dislocation under anesthesia.
The liver was immediately frozen in liquid nitrogen. The liver tissue was preserved at −80° C. before they were used for further assays.
Tissues were homogenized in T-PER® Tissue Protein Extraction Reagent (Pierce Biotechnology, Rockford, Ill.) with Halt™ Protease Inhibitor Single-Use Cocktail (Pierce Biotechnology, Rockford, Ill.). Liver homogenates were prepared by mechanical homogenization (Polytron PT3100, Luzernerstrasse, Switzerland). After centrifuging the homogenates at 10,000 g for 30 min, the supernatants were collected and frozen at −80° C. for further use. The protein concentrations were determined by using a BCA Protein Assay Kit (Pierce Biotechnology, Rockford, Ill.). For western blot analysis, about 60 μg of protein preparations were applied on 10% sodium dodecyl sulfate-polyacrylamide gel electrophoresis and then transferred to polyvinylidene difluoride membranes (Millipore, Billerica, Mass.). The membranes were blocked with 5% (w/v) non-fat dry milk in phosphate buffered saline (PBS) containing 0.1% Tween 20 (PBS-T). After blocking, the blotted membrane was incubated with anti-phospho-insulin receptor β (IRβ) (Tyr^1345), phospho-Akt (Ser^473) (Cell Signaling Technology, Beverly, Mass.), anti-IRβ, Akt, β-Actin (Santa Cruz Biotechnology, Santa Cruz, Calif.), and anti-GLUT2 antibodies (Abcam, Cambridge, UK) in presence of 3% bovine serum albumin (BSA) in PBS-T buffer. Following the incubation, the membranes were washed 3 times with PBS-T for 15 min each and then incubated with the appropriate peroxidase-conjugated secondary antibodies (Santa Cruz. Biotechnology, USA) in PBS-T. After removal of the secondary antibody, blots were washed and developed using the enhanced chemiluminescenece (ECL) western blotting system (Millipore, Billerica, Mass.). The density of the protein bands were quantified using ImageQuant.

[3] = tested on: non-diabetic, T1DM and T2DM mice; test: Plasma glucose after bolus intraperitoneal borapetoside C
Protocol: as §1
Blood samples were collected from the orbital vascular plexus of mice under anesthesia with sodium pentobarbital (80 mg/kg, intraperitoneal, Sigma Chemical Co., St. Louis, Mo., USA). Blood samples were then centrifuged at 13000 rpm for 5 min, and the plasma was kept on ice prior to the assay. The plasma glucose concentration was measured using commercial kits following manufacturer's instructions (BioSystems S. A., Barcelona, Spain).

[4] = borapetoside C 0.1 mg/kg twice daily, alone or with insulin 1.0 IU/kg twice daily
[5] = borapetoside C 5.0 mg/kg vs insulin 0.5 IU/kg twice daily

How did the “PEPCK expression in liver” value [1] turn out when `C[C@@]12C[C@@H](c3ccoc3)OC(=O)[C@@H]1C[C@@H]1OC(=O)[C@@]3(O)[C@@H](O[C@@H]4O[C@H](CO)[C@@H](O)[C@H](O)[C@H]4O)CC[C@@H]2[C@@]13C` [Borapetoside A, borapetoside A] was run?
The value was “significant decrease”.

And the “expression of GLUT2 in liver” value [1]?
The value was “increased”.

What about the “phosphorylated AS160 in liver” value [1] of the same compound?
Its value is “increased”.

What about the “phosphorylated Akt in liver” value [1] of the same compound?
Its value is “increased”.

What about the “phosphorylated IR in liver” value [1] of the same compound?
Its value is “increased”.

Which results are given for `COC(=O)C1=CCC[C@H]2[C@]3(C)C[C@@H](c4ccoc4)OC(=O)[C@@H]3C[C@@H](O[C@@H]3O[C@H](CO)[C@@H](O)[C@H](O)[C@H]3O)[C@@]12C` [Borapetoside C, borapetoside C]?
expression of GLUT2 in liver ([2]; 5.0 mg/kg twice daily): increased; level of phosphorylated Akt in liver ([2]; 5.0 mg/kg twice daily): increased; level of phosphorylated IR in liver ([2]; 5.0 mg/kg twice daily): increased; GLUT2 in liver vs vehicle-treated [2, 4]: not significantly increased; serine phosphorylation of Akt in liver vs vehicle-treated [2, 4]: not significantly increased; tyrosine phosphorylation of IR in liver vs vehicle-treated [2, 4]: not significantly increased; phosphorylation of Akt and GLUT2 expression compared with the effect of insulin [2, 5]: less phosphorylation of Akt and GLUT2 expression; phosphorylation of IR compared with the effect of insulin [2, 5]: more phosphorylation of IR; plasma glucose concentrations ([3]; bolus i.p. 0.5 to 5 mg/kg, non-diabetic, T1DM and T2DM mice): significantly lowered plasma glucose concentrations in a dose-dependent manner; plasma glucose levels ([3]; borapetoside C at 0.1 mg/kg alone): did not alter the plasma glucose levels

From patent US20150265682A1, “THERAPEUTIC METHODS AND COMPOSITIONS FOR TREATING DIABETES” (Orient Europharma Co., Ltd., priority 2014, published 2015)
